Laboratory results: US20140005271A1, “PHARMACEUTICAL COMPOSITION FOR PREVENTING OR TREATING INFLAMMATORY DISEASES OR INFECTIOUS DISEASES, CONTAINING m-3M3FBS, WHICH IS ACTIVATOR OF PHOSPHOLIPASE C, AS ACTIVE INGREDIENT” (priority 2011, published 2014)

What was measured:
[1] = tested on: bacteria in the peritoneal fluid; assay: In vivo microbicidal action: bacterial colonies (CFU) in peritoneal lavage fluid after CLP; design: species or system mouse; conditions: 1.5 mg/kg; 24 hours after CLP; FIG. 3A
Description: 24 hours after the CLP, peritoneal lavage fluid was harvested, and was incubated overnight in a blood-agar base plate (Trypticase Soy Agar Deeps, Becton Dickinson) at 37° C. CFUs were estimated by counting bacteria colonies formed in the blood-agar base plate (Trypticase Soy Agar Deeps, Becton Dickinson).

[2] = tested on: mouse neutrophils with opsonized E. coli; assay: Microbicidal action of neutrophils on ingested opsonized E. coli; type: cell-based
Description: Neutrophils were incubated for 1 hour at a 13-mm plastic cover slip on a 60-mm plastic petri dish (1×10^6 neutrophils/cover slip) at 37° C. Unattached neutrophils were removed by PBS washing, and the attached neutrophils were incubated with 10^6 of opsonized E. coli for 20 minutes. Microbes ingested by neutrophils were incubated for 30 minutes at various concentrations of m-3M3FBS or vehicles, and changes of the microbes before and after incubation were examined. A percentage of dead microbes was calculated by 100×(1−the number of CFU after m-3M3FBS stimulation/the number of CFU before m-3M3FBS stimulation).

splenocytes = assay: TUNEL assay of CLP-induced apoptosis; type: in vivo, mouse; conditions: 1.5 mg/kg; FIG. 4C
Description: The TUNEL assay was performed on tissue fragments embedded in paraffin, and the fragments were subjected to permeation of Triton X-100 at 4° C. for 2 minutes, and immersed in a TdT enzyme and a digoxigenin-dUTP reaction buffer (TUNEL) reagent for 60 minutes at 37° C. A percentage of apoptotic cells (TUNEL-positive cells) was determined by counting 500 splenocytes, which were observed using an optical microscope.

splenocytes of mice = assay: Direct in vitro production of IFN-γ and IL-12 by ELISA; type: cell-based, mouse; conditions: various concentrations, 3 hours
mouse neutrophils [3] = assay: Production of H2O2 in neutrophils; type: cell-based
Description: Neutrophils of mice were isolated from peripheral blood using Histopaque-1077 solvent (Sigma), and neutrophils isolated from a normal mouse were stimulated by treating various concentrations of m-3M3FBS for 10 minutes in the presence of cytochalasin B (5 μm). […] H2O2 obtained from a supernatant was analyzed using H2O2 Molecular Probes.

lung of the CLP mouse = assay: Inflammation of the lung in CLP mice (hematoxylin and eosin staining, W/D weight ratio); type: in vivo; conditions: 1.5 mg/kg
Description: The degree of pulmonary edema was identified by measuring a wet-to-dry (W/D) ratio of the lung. The wet weight of the harvested cells was measured, and the cells were placed in an oven at 60° C. for 48 hours, and the dry weight of the cells was measured, thereby obtaining the W/D ratio.
2 hours after the mice underwent CLP, PBS or m-3M3FBS was administered at a concentration of 1.5 mg/kg. 24 hours after the surgery, the mice were euthanized, and the lung was fixed, cut, and stained with hematoxylin and eosin to perform morphological analysis.

caspase-3 = assay: Immunostaining of fragmented caspase-3 in splenocytes of CLP mice; design: species or system mouse; conditions: 1.5 mg/kg in vivo; FIG. 4D
Description: Immunostaining was performed on the paraffin-embedded tissue fragments. The fragments were incubated with primary antibodies (Cell Signal transduction) in response to fragmented capase-3, and stained with fluorescent pigment-fused secondary antibodies.

CLP mouse models = assay: Survival/mortality of CLP (cecal ligation and puncture) sepsis mice; type: in vivo; conditions: for effect on the m-3M3FBS-induced survival rate: treated within the period of injecting m-3M3FBS, 1.5 mg/kg, FIG. 1C
Description: (§1) Male WT ICR mice were used as test models. All tests involving animals were performed according to the guidelines, and received the approval of Institutional Review Committee for Animal Care and Use from Dong-a University. For cecal ligation and puncture (CLP), the mice were anesthetized by intraperitoneal injection of pentothal sodium (50 mg/kg), and the cecum was exposed through midline incision of the abdomen. The cecum was ligated at a terminal end of the ileocecal valve, and the surface was perforated twice, or once to measure cytokine production using a 22-gauge needle, and the abdomen was closed. The control (sham) CLP mice underwent the same process as described above, but the cecum was not ligated or punctured.

mouse neutrophils [4] = assay: LPS-induced proinflammatory cytokine secretion in neutrophils by ELISA; type: cell-based; conditions: LPS 100 ng/ml, m-3M3FBS 10 μM, versus LPS alone
Description: Mouse neutrophils (3×10^6 cells/0.3 ml) were incubated in a 24-well plate containing 10% FBS-contained RPMI 1640 medium, and placed in 5% CO2 incubator at 37° C. Then, the neutrophils were incubated with LPS (100 ng/ml) for 6 hours in the presence or absence of m-3M3FBS (10 μM). The LPS (100 ng/ml) was treated to the cells after 30 minutes, the cell-free supernatant was harvested by centrifugation, and the production of IL-1 or TNF-α was detected by ELISA (BD Biosciences Pharmingen) according to the manufacturer's instructions.

[5] = tested on: thymocytes and splenocytes; assay: CLP-induced apoptosis of thymocytes and splenocytes (H&E staining, counting of living cells); type: in vivo, mouse; conditions: 1.5 mg/kg; 24 hours; FIGS. 4A and B
Description: as §1

[6] = tested on: cytokines in the peritoneal fluid; assay: CLP-induced cytokines in peritoneal fluid by ELISA; type: in vivo, mouse; conditions: 1.5 mg/kg, 4 to 72 hours after CLP
Description: To detect production of CLP-inducing cytokines in peritoneal lavage fluid, m-3M3FBS was treated 2, 14, 26, or 38 hours after CLP. The peritoneal lavage fluid was harvested at various points of time from 4 to 72 hours after the CLP, and expression of cytokines in the peritoneal fluid was detected by ELISA (BD Biosciences Pharmingen).

Cc1cc(C)c(S(=O)(=O)Nc2cccc(C(F)(F)F)c2)c(C)c1 [m-3M3FBS]
decrease in number of colonies of bacteria in the abdominal cavity [1]: 55% | microbicidal action of the neutrophils ([2]; 1 to 50 μm m-3M3FBS, FIG. 3B): significantly increased in a direction proportional to the concentration | CLP-induced apoptosis by DNA fragmentation assay (TUNEL) (splenocytes): significantly inhibited | production of IFN-γ (splenocytes of mice; FIG. 6D): increased | production of IL-12 (splenocytes of mice; FIG. 6E): increased | production of H2O2 in the neutrophils (mouse neutrophils [3]; 1 to 50 μm m-3M3FBS, FIG. 3D): increased the production of H2O2 in the neutrophils in a direction proportional to the concentration | W/D weight ratio of the lung (lung of the CLP mouse; 24 hours after CLP, FIG. 2B): significantly decreased | lung inflammation symptoms (congestion, extensive thrombotic lesions) (lung of the CLP mouse; hematoxylin and eosin staining 24 hours after surgery, FIG. 2A): significantly decreased | activation of CLP-induced caspase-3 (caspase-3): significantly inhibited | survival rate by injection frequency (CLP mouse models; 1.5 mg/kg 2 hours after CLP, further three or four times at 12 hour intervals, FIG. 1B): significantly improved | survival rate of the mice compared to vehicle-injected control (CLP mouse models; 0.9 or 1.5 mg/kg injected, FIG. 1A): significantly increased | mortality of the mice after CLP (CLP mouse models; various concentrations injected after CLP, FIG. 1A): significant decrease in the mortality | level of IL-1β after LPS treatment (mouse neutrophils [4]; FIG. 6A): decreased | level of TNF-α after LPS treatment (mouse neutrophils [4]; FIG. 6B): decreased | level of IL-6 after LPS treatment (mouse neutrophils [4]; FIG. 6C): decreased | CLP-induced apoptosis of the thymocytes and splenocytes [5]: significantly inhibited | level of IL-1β in peritoneal fluid ([6]; FIG. 5A): significantly decreased | level of TNF-α in peritoneal fluid ([6]; FIG. 5B): significantly decreased | level of IL-12p70 in peritoneal fluid ([6]; FIG. 5C): significantly increased | level of IFN-γ in peritoneal fluid ([6]; FIG. 5D): significantly increased

COc1ccc2c(c1)CC[C@@H]1[C@@H]2CC[C@]2(C)[C@@H](NCCCCCCN3C(=O)C=CC3=O)CC[C@@H]12 [U-73122, reference compound]
effect on m-3M3FBS-induced microbicidal action ([2]; neutrophils preincubated with the inhibitor (10 μM), then m-3M3FBS added, FIG. 3C): completely prevented | effect on m-3M3FBS-induced production of H2O2 (mouse neutrophils [3]; neutrophils preincubated with the inhibitor (10 μm), FIG. 3E): significantly decreased | effect on the m-3M3FBS-induced survival rate (CLP mouse models): completely prevented the increase in the m-3M3FBS-induced survival rate

COc1ccc2c(c1)CC[C@@H]1[C@@H]2CC[C@]2(C)[C@@H](NCCCCCCN3C(=O)CCC3=O)CC[C@@H]12 [U-73343, reference compound]
effect on the m-3M3FBS-induced survival rate (CLP mouse models): did not
